This is an account of results in patent publication US10624845B2 (The Procter & Gamble Company, priority 2015, dated 2020).

For series [1], the system named is buccal tissue (EpiOral® tissues). Particulars: for Average Apparent Permeability Coefficient Papp: donor pH 9.0, receiver pH 7.4, co-dosed 100 μM (caffeine 50 μM), n=6.
Series [2] has the same test system. Put plainly: Permeability Enhancer Assay (Permeability Enhancer Test). Particulars: pH 5.0; reference […]10^−6 cm/s.
Excerpt: The donor side was not sampled and donor concentration was not measured.
Another series is described as follows: in vitro. As to conditions: human.

The structures appear in SMILES notation.

On to `Cn1c(=O)c2c(ncn2C)n(C)c1=O` [Caffeine], for which the “Average Apparent Permeability Coefficient Papp” value in series [1] is 33.3 ± 3.55 10^−6 cm/s. The “change of Papp at pH 9.0 compared to that at pH 5.0 and 7.4” value in series [1] (pH 9.0 vs pH 5.0 and 7.4) is listed as “only moderately increased”. As to `CCCCCCCCCCCCCCCC[n+]1ccccc1` [Cetylpyridinium chloride], the “effect of the enhancer on the Papp of diphenhydramine versus reference Papp from the Permeability Test” value in series [2] is recorded as “higher”. With `CC(C)NCC(O)COc1cccc2ccccc12` (stereo not drawn) [Propranolol], the “Average Apparent Permeability Coefficient Papp” value in series [1] is 21.5 ± 4.66 10^−6 cm/s. The Papp (as a rule, the rate of passage across a membrane or cell layer, normalised by area and donor concentration) at 120 min, 100 μM was 1.45 ×10⁻⁶ cm/s in “in vitro” (pH 5), 9.35 ×10⁻⁶ cm/s in “in vitro” (pH 7.4) and 21.5 ×10⁻⁶ cm/s in the series “in vitro” (pH 9). Take `CCCCCCCCCCCCOS(=O)(=O)[O-].[Na+]` [SDS, sodium dodecyl sulfate]: the “effect of the enhancer on the Papp of diphenhydramine versus reference Papp from the Permeability Test” value in series [2] is recorded as “lower”. Same read-out and setting: in the case of `CCCCCCCCCC(=O)[O-].[Na+]` [Sodium Caprate] it was “higher”.
